The supplement of paper PMC10307832

Tests used:
Experiment in all cases: relative viability (nuclei count vs DMSO), 5 days (fraction); higher = more cells survive
Irinotecan + Luminespib = compound: CCc1c2c(nc3ccc(OC(=O)N4CCC(N5CCCCC5)CC4)cc13)-c1cc3c(c(=O)n1C2)COC(=O)[C@]3(O)CC [Irinotecan] + CCNC(=O)c1noc(-c2cc(C(C)C)c(O)cc2O)c1-c1ccc(CN2CCOCC2)cc1 [Luminespib] (partner 0.01 µM)
Method in brief: (§1)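 Lung cancer cell lines, seeded in 1536-well plates, were treated the following day by pin tool with a single drug or with five library-drug doses (not always all listed) in √10 steps on top of a fixed anchor-drug dose. Cells were fixed and nuclei stained in one step after 5 days, and nuclei were counted. Relative viability is the nuclei count for treated wells divided by that for vehicle wells, reported as medians of duplicate plates.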

MK-8033 + Luminespib = compound: Cn1cc(-c2cnc3ccc4ccc(CS(=O)(=O)NCc5ccccn5)cc4c(=O)c3c2)cn1 [MK-8033] + CCNC(=O)c1noc(-c2cc(C(C)C)c(O)cc2O)c1-c1ccc(CN2CCOCC2)cc1 [Luminespib] (partner 0.01 µM)
Method in brief: as §1

MK-8033 + Crizotinib = compound: Cn1cc(-c2cnc3ccc4ccc(CS(=O)(=O)NCc5ccccn5)cc4c(=O)c3c2)cn1 [MK-8033] + C[C@@H](Oc1cc(-c2cnn(C3CCNCC3)c2)cnc1N)c1c(Cl)ccc(F)c1Cl [Crizotinib] (partner 1 µM)
Method in brief: as §1

MK-8033 + Phenformin = compound: Cn1cc(-c2cnc3ccc4ccc(CS(=O)(=O)NCc5ccccn5)cc4c(=O)c3c2)cn1 [MK-8033] + N=C(N)NC(=N)NCCc1ccccc1 [Phenformin] (partner 250 µM)
Method in brief: as §1

Cell Line	relative viability (Irinotecan + Luminespib; first compound 2 µM)	relative viability (Irinotecan + Luminespib; first compound 6.325 µM)	relative viability (Irinotecan + Luminespib; first compound 20 µM)	relative viability (MK-8033 + Luminespib; first compound 0.02 µM)	relative viability (MK-8033 + Luminespib; first compound 0.06325 µM)	relative viability (MK-8033 + Luminespib; first compound 0.6325 µM)	relative viability (MK-8033 + Luminespib; first compound 2 µM)	relative viability (MK-8033 + Crizotinib; first compound 0.02 µM)	relative viability (MK-8033 + Crizotinib; first compound 0.06325 µM)	relative viability (MK-8033 + Crizotinib; first compound 0.2 µM)	relative viability (MK-8033 + Crizotinib; first compound 0.6325 µM)	relative viability (MK-8033 + Crizotinib; first compound 2 µM)	relative viability (MK-8033 + Phenformin; first compound 0.02 µM)	relative viability (MK-8033 + Phenformin; first compound 0.06325 µM)	relative viability (MK-8033 + Phenformin; first compound 0.2 µM)	relative viability (MK-8033 + Phenformin; first compound 0.6325 µM)	relative viability (MK-8033 + Phenformin; first compound 2 µM)	relative viability (Irinotecan + Luminespib; first compound 0.6325 µM)	relative viability (MK-8033 + Luminespib; first compound 0.2 µM)
ABC-1	0.528	0.352	0.269	0.544	0.545	0.602	0.473	1.06	1.14	1.06	0.996	1.04	0.202	0.219	0.227	0.281	0.211	–	–
NCI-H2023	0.256	0.127	0.0843	0.758	0.652	0.693	0.634	0.674	0.559	0.554	0.554	0.586	0.41	0.348	0.348	0.356	0.306	0.467	0.652
PC-14	0.326	0.321	0.252	0.125	0.128	0.174	0.224	0.932	0.81	0.875	0.889	0.817	0.605	0.472	0.508	0.524	0.564	0.11	0.131
ChaGo-K-1	0.332	0.23	0.282	0.679	0.696	0.636	0.516	1.11	1.02	1.11	1.1	0.726	0.477	0.479	0.435	0.512	0.5	0.309	0.562
NCI-H650	0.322	0.139	0.199	0.827	0.787	0.833	0.769	0.648	0.753	1	0.778	0.712	0.441	0.445	0.464	0.437	0.47	0.635	0.819
EBC-1	–	–	–	–	–	–	–	0.158	0.16	0.193	0.193	0.188	–	–	–	–	–	–	–
NCI-H2228	0.177	0.318	0.276	0.178	0.0977	0.161	0.208	0.373	0.372	0.508	0.387	0.362	0.399	0.287	0.345	0.294	0.299	0.14	0.163
NCI-H1703	–	–	–	–	–	–	–	0.583	0.576	0.549	0.601	0.715	–	–	–	–	–	–	–
201T	0.547	0.313	0.342	0.986	1.07	1.06	1.03	1.07	0.991	1.03	0.874	1.03	0.499	0.448	0.39	0.436	0.469	–	0.957
NCI-H1915	0.36	0.149	0.132	0.728	0.8	0.827	0.668	0.935	0.896	0.802	0.885	0.911	0.356	0.315	0.373	0.391	0.376	0.346	0.676
NCI-H358	0.152	0.151	0.143	0.417	0.236	0.296	0.213	0.493	0.503	0.595	0.434	0.508	0.369	0.296	0.296	0.307	0.318	0.285	0.235
NCI-H2347	0.365	0.284	0.321	0.362	0.277	0.408	0.556	0.752	0.667	0.665	0.618	0.823	0.442	0.37	0.57	0.59	0.428	0.355	0.473
NCI-H1793	0.193	0.192	0.262	0.174	0.217	0.209	0.162	–	–	–	–	–	0.383	0.284	0.316	0.394	0.293	–	0.161
SW 900	0.387	0.366	0.465	0.147	0.175	0.18	0.187	–	–	–	–	–	0.466	0.649	0.603	0.591	0.499	0.203	0.177
A549	–	–	–	–	–	–	–	0.719	0.713	0.703	0.848	0.677	0.221	0.157	0.172	0.148	0.193	–	–
NCI-H1623	0.312	0.279	0.239	0.4	0.479	0.498	0.363	–	–	–	–	–	0.578	0.538	0.618	0.507	0.619	0.412	0.429
IA-LM	–	–	–	–	–	–	–	0.739	0.667	0.948	0.667	0.899	–	–	–	–	–	–	–
NCI-H2342	0.676	0.572	0.485	0.774	0.643	0.631	0.651	–	–	–	–	–	0.55	0.529	0.585	0.594	0.591	0.756	0.805
